Test results published in patent US20240285551A1, “A SMALL MOLECULE TNF-a INHIBITOR AND PREPARATION METHOD AND USE THEREOF” (FUDAN UNIVERSITY, priority 2021, published 2024).

Experiments:
Format in all cases: in vivo
[1] = system: DSS induced acute ulcerative colitis model in C57 mice; assay: DSS induced acute ulcerative colitis in C57 mice (body weight, DAI, colon length, H&E pathology)
Protocol: (§1) Except for the normal group, all other groups of mice were allowed to freely drink a 3% DSS solution which was freshly prepared and replaced the next day (wherein the 3% DSS solution was prepared by weighing 3 g of a DSS powder (from MP Biomedicals, USA with a molecular weight of 36,000 to 50,000) and fully dissolving it in 100 mL of the drinking water for the mice); whereas the normal group was given blank drinking water; the control group mice drank water normally for 7 days, while the DSS group mice drank the 3% DSS solution freely for 7 days and were administrated for 6 days from the second day DSS was given. The mice were administered by gavage once a day with a volume of 10 mL/kg, wherein the normal control group and DSS group were gavaged with a solvent of 0.5% CMC-Na (wherein a 0.5% CMC-Na solution is at a concentration of 0.5 g/100 mL, the same below), while the other groups were separately gavaged with drugs dissolved in 0.5% CMC-Na.
The normal control group mice were vivacious with glossy fur, stable weight gain, and normal stools appearing elliptical or spindle shaped.
In order to further evaluate the disease development for each group of acute UC mice, we performed DAI scoring on the loose and bloody stools etc. for each mouse (see panel B1 in FIG. 3). […] As the experiment progressed, the disease became gradually worsened, with some animals experiencing severe bloody stools and significant emaciation.
(§2) After dissection, the colon of each mouse was taken and the length of the colon was measured separately.

[2] = system: chronic ulcerative colitis model in IL-10 whole gene knockout mice; assay: chronic ulcerative colitis in IL-10 whole gene knockout mice (survival, body weight, colon length, H&E pathology); details: positive drug group, dose not given
Protocol: Ten C57 mice (aged 10-12 weeks, around 20 g) with an identified genotype of Wildtype were taken as the normal control group. […] The mice were administered by gavage once a day with a volume of 10 mL/kg, wherein the normal control group and DSS group were gavaged with a solvent of 0.5% CMC-Na while the other groups were separately gavaged with drugs dissolved in 0.5% CMC-Na.
as §2

IL-1β [3] = assay: serum IL-1β protein by ELISA, DSS acute UC mice; details: 10 mg/kg
Protocol: as §1

IL-6 [4] = assay: serum IL-6 protein by ELISA, DSS acute UC mice; details: 10 mg/kg
Protocol: as §1
(§3) To investigate the effects of compounds (R)-STU104, (S)-STU104, and (±)-STU104 on the secretion of such inflammatory factors as TNF-α, IL-1β, IL-6, and IL-23 by mice of the DSS induced acute ulcerative colitis model in C57 mice, we isolated serum after blood acquisition and detected the contents of such inflammatory factors as TNF-α, IL-1β, IL-6, and IL-23 in the serum of mice using ELISA.

IL-1β [5] = assay: colon tissue IL-1β mRNA by qPCR, DSS acute UC mice; details: 10 mg/kg
Protocol: as §1
(§4) After dissection, a segment of the colon was taken from the same part of each mouse, total RNAs were extracted from tissues, and mRNA expressions of such inflammatory factors as TNF-α, IL-1β, IL-6, and IL-23 in colon tissues of the mice were detected through qPCR.

IL-23 [6] = assay: colon tissue IL-23 mRNA by qPCR, DSS acute UC mice; details: 10 mg/kg
Protocol: as §1, §4

TNF-α [7] = assay: colon tissue TNF-α mRNA by qPCR, DSS acute UC mice; details: 10 mg/kg
Protocol: as §1, §4

TNF-α [8] = assay: serum TNF-α protein by ELISA, DSS acute UC mice; details: 10 mg/kg
Protocol: as §1, §3

IL-6 [9] = assay: colon tissue IL-6 mRNA by qPCR, DSS acute UC mice; details: 10 mg/kg
Protocol: as §1, §4

IL-23 [10] = assay: serum IL-23 protein by ELISA, DSS acute UC mice; details: 10 mg/kg
Protocol: as §1, §3

For Nc1ccc(O)c(C(=O)O)c1 [mesalazine, reference compound], the “colon length recovery rate (inhibition of colon shortening)” value ([1]; 50 mg/kg, gavage once a day) was 26.4%, the “recovery rate of colon pathological sections (H&E)” value ([1]; 50 mg/kg, gavage once a day) was 38.0% and the “body weight recovery rate” value ([1]; 50 mg/kg, gavage once a day, day 7) was 7%. For the same compound, the “recovery rate of colon pathological sections (H&E)” value [2] was 44.3% and the total mortality rate [2] was “no deaths occurred”.

In the case of COc1ccc([C@@H]2CC(=O)c3cc(OC)cc(OC)c32)cc1 [(S)-STU104], the “inhibition ratio of IL-1β protein content in serum” value (IL-1β [3]) is reported as 18.1%, the “inhibition ratio of IL-6 protein content in serum” value (IL-6 [4]) is reported as 32.6% and the “inhibition ratio of IL-1β mRNA in colon tissues” value (IL-1β [5]) is reported as 27.7%. For the same compound, the “inhibition ratio of IL-23 mRNA in colon tissues” value (IL-23 [6]) was 10.6%, the “inhibition ratio of TNF-α mRNA in colon tissues” value (TNF-α [7]) was 22.0% and the “inhibition ratio of TNF-α protein content in serum” value (TNF-α [8]) was 10.2%. The “inhibition ratio of IL-6 mRNA in colon tissues” value (IL-6 [9]) was 8.1%, the “inhibition ratio of IL-23 protein content in serum” value (IL-23 [10]) was 18.9% and the “improvement of acute UC symptoms” value ([1]; 10 mg/kg, compared with mesalazine 50 mg/kg) was “significantly lower than that in the mesalazine group”. The “colon length recovery rate (inhibition of colon shortening)” value ([1]; 10 mg/kg, gavage once a day) was 14.5% and the “recovery rate of colon pathological sections (H&E)” value ([1]; 10 mg/kg, gavage once a day) was 13.9%.
